From patent US11111238B2, “Coumarin derivatives, processes for their preparation and uses thereof for the treatment of cancer” (Lead Discovery Center GmbH, priority 2017, dated 2021)

Molecular target: mitochondrial RNA-polymerase (POLRMT) (Mus musculus, UniProt Q8BKF1)
Experiment: Homogeneous TR-FRET assay for mitochondrial transcription activity
Format: biochemical
Details: homogeneous TR-FRET assay according to Example 4; activity class
From the text: The TR-FRET assay was basically conducted as described in WO2016/193,231A1, especially as described in example 1 (hereby incorporated by reference). With respect to the background of the mitochondrial transcription it is referred to Falkenberg et al. (2002) and Posse et al. (Posse et al., 2015). The method monitors the activity of mitochondrial RNA-polymerase via detection of the formation of its product, a 407 bp long RNA sequence. Detection of the product is facilitated by hybridization of two DNA-oligonucleotide probes to specific and adjacent sequences within the RNA product sequence. Upon annealing of the probes, two fluorophores that are coupled directly to an acceptor nucleotide probe (ATT0647, 5′) or introduced via a coupled streptavidin interacting with a biotinylated donor nucleotide probe on the other side (Europium cryptate, 3′) are brought into sufficient proximity to serve as a fluorescence-donor-acceptor pair as generally described in Walters and Namchuk (2003). Thus, a FRET signal at 665 nm is generated upon excitation at 340 nm.
Briefly, the protocol described here was applied for screening and activity determination in a low-volume 384-well microtiter plate with non-binding surface. For high-throughput application in the 1536-well microtiter plate format, volumes of the reagent mixes were adjusted, maintaining the volumetric ratio. Proteins POLRMT (NM_172551.3), TFAM (NM_009360.4) and TFB2 M (NM_008249.4) were diluted from their stocks to working concentrations of 150 nM, 1.8 μM and 330 nM respectively, in a dilution buffer containing 100 mM Tris-HCl pH 8.0, 200 mM NaCl, 10% (v/v) glycerole, 2 mM glutathione (GSH), 0.5 mM EDTA and 0.1 mg/mL BSA. Protein dilutions and template DNA, comprising a pUC18 plasmid encoding the mitochondrial light strand promoter, restriction linearized proximal to the promoter 3′-end (pUC-LSP), were mixed at the twofold final assay-concentration in a reaction buffer, containing 10 mM Tris-HCl pH 7.5, 10 mM MgCl2, 40 mM NaCl, 2 mM GSH, 0.01% (w/v) Tween-20 and 0.1 mg/mL BSA.
5 μL of this mix were dispensed, depending on the chosen microtiter plate format, using multi-channel pipettes or a Multidrop® dispenser (Thermo Fisher Scientific, Waltham Mass.) into the wells of a microtiter plate and incubated at room temperature (RT) for 10 min. Chemical compounds under scrutiny in the assay were applied using contact-free acoustic droplet-dispensing (Echo520® Labcyte Inc., Sunnyvale Calif.) from 10 mM compound stocks in 100% DMSO, to a final concentration of 10 μM or in serial dilution series of the required concentration range. Equal amounts of DMSO without any compound were added to positive control samples, followed by an incubation step at RT for 10 min.
The enzymatic reaction was started by the addition of 5 μL of a mix of […] in reaction buffer to a final concentration of 500 μM each. No nucleotide mix was added to negative control samples. The content of the wells was mixed using a VarioTeleshaker™ (Thermo Fisher Scientific, Waltham Mass.) at 1,500 rpm for 45 sec after which the microtiter plate was centrifuged at 500×g for 1 min. The samples were incubated for 2 h at RT with humidity control to avoid evaporation. The detection reagents were prepared in a buffer that was composed, such that the enzymatic reaction was terminated due to chelating of Mg-ions and increased ionic strength, containing 50 mM Tris-HCl pH 7.5, 700 mM NaCl, 20 mM EDTA, and 0.01% (w/v) Tween-20. Importantly Eu-cryptate-coupled streptavidin had to be pre-incubated with a 100-fold molar excess of a random sequence oligonucleotide for 10 min at RT in the dark to block unspecific binding of single stranded RNA to the protein. Subsequently, the blocked streptavidin(—Eu) was mixed with the DNA-probes on ice and kept away from light until use. […]

mitochondrial RNA-polymerase (POLRMT), sequence (Q8BKF1 42-1207): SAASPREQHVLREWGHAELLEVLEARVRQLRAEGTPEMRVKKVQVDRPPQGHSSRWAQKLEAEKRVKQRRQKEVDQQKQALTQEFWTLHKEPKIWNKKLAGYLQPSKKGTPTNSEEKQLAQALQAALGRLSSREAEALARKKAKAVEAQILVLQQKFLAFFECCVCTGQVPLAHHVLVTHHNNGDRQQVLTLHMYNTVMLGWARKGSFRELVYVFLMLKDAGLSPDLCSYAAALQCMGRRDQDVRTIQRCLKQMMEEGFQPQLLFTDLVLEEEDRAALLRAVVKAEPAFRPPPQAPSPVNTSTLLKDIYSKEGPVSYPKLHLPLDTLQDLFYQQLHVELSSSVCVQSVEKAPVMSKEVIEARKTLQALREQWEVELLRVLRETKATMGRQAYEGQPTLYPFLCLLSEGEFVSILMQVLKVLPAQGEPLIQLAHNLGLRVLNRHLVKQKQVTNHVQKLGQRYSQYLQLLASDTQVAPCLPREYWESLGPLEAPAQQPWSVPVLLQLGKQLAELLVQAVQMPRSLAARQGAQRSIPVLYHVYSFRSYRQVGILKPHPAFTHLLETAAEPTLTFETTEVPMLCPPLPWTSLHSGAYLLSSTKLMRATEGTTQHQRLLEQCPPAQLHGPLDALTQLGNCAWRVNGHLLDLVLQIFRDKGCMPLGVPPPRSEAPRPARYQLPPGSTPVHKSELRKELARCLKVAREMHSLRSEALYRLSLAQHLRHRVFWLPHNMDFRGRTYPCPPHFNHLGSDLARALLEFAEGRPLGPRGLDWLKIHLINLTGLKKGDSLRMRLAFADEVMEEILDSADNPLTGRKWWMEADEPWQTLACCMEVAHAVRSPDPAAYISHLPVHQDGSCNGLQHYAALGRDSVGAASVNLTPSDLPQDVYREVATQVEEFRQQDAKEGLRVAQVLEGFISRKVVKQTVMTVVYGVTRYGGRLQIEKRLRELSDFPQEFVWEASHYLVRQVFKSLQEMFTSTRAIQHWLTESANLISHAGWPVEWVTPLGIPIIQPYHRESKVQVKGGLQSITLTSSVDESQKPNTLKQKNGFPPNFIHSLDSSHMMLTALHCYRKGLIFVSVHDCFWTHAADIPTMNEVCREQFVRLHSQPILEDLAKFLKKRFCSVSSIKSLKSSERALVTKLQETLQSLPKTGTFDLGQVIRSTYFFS

IC50 [nM]	SMILES
< 20	C[C@@H](Oc1ccc2c(-c3ccc(F)cc3Cl)cc(=O)oc2c1)C(=O)Nc1ccc(C(=O)O)nc1 [Compound 154, 5-[[(2R)-2-[4-(2-chloro-4-fluoro-phenyl)-2-oxo-chromen-7-yl]oxypropanoyl]amino]pyridine-2-carboxylic acid]
< 20	C[C@@H](Oc1ccc2c(-c3ccc(F)cc3Cl)cc(=O)oc2c1)C(=O)N1CCC[C@H](CC(N)=O)C1 [Compound 133, 2-[(3R)-1-[(2R)-2-[4-(2-chloro-4-fluoro-phenyl)-2-oxo-chromen-7-yl]oxypropanoyl]-3-piperidyl]acetamide]
20 to 100	CC(Oc1ccc2c(-c3ccccc3Cl)cc(=O)oc2c1)C(=O)N1CCC[C@@H](C(=O)N(C)C)C1 (stereo partly drawn) [Compound 67, (3R)-1-[2-[4-(2-chlorophenyl)-2-oxo-chromen-7-yl]oxypropanoyl]-N,N-dimethyl-piperidine-3-carboxamide]
20 to 100	CCNC(=O)C(C)Oc1ccc2c(-c3cccc(F)c3Cl)cc(=O)oc2c1 (stereo not drawn) [Compound 68, 2-[4-(2-chloro-3-fluoro-phenyl)-2-oxo-chromen-7-yl]oxy-N-ethyl-propanamide]
20 to 100	COC(=O)C[C@H]1CCN(C(=O)[C@@H](C)Oc2ccc3c(-c4ccc(F)cc4Cl)cc(=O)oc3c2)C1 [Compound 142, methyl 2-[(3R)-1-[(2R)-2-[4-(2-chloro-4-fluoro-phenyl)-2-oxo-chromen-7-yl]oxypropanoyl]pyrrolidin-3-yl]acetate]
< 20	Cc1ccccc1-c1cc(=O)oc2cc(O[C@H](C)C(=O)N(C)C)ccc12 [Compound 44, (2R)-N,N-dimethyl-2-[4-(o-tolyl)-2-oxo-chromen-7-yl]oxy-propanamide]
< 20	COC(=O)C1CCCN(C(=O)C(C)Oc2ccc3c(-c4ccccc4C)cc(=O)oc3c2)C1 (stereo not drawn) [Compound 6, methyl 1-[2-[4-(o-tolyl)-2-oxo-chromen-7-yl]oxypropanoyl]piperidine-3-carboxylate]
< 20	CNC(=O)C(C)Oc1ccc2c(-c3ccccc3Cl)cc(=O)oc2c1 (stereo not drawn) [Compound 51, 2-[4-(2-chlorophenyl)-2-oxo-chromen-7-yl]oxy-N-methyl-propanamide]
100 to 1000	CCOC(=O)C1(C)CCCN(C(=O)C(C)Oc2ccc3c(-c4ccc(F)cc4Cl)cc(=O)oc3c2)C1 (stereo not drawn) [Compound 95, ethyl 1-[2-[4-(2-chloro-4-fluoro-phenyl)-2-oxo-chromen-7-yl]oxypropanoyl]-3-methyl-piperidine-3-carboxylate]
20 to 100	CCOC(=O)C1(C)CCCN(C(=O)C(C)Oc2ccc3c(-c4ccccc4C)cc(=O)oc3c2)C1 (stereo not drawn) [Compound 88, ethyl 3-methyl-1-[2-[4-(o-tolyl)-2-oxo-chromen-7-yl]oxypropanoyl]piperidine-3-carboxylate]
20 to 100	C[C@@H](Oc1ccc2c(-c3ccc(F)cc3Cl)cc(=O)oc2c1)C(=O)N1CCN[C@@H](C(=O)O)C1 [Compound 150, (2R)-4-[(2R)-2-[4-(2-chloro-4-fluoro-phenyl)-2-oxo-chromen-7-yl]oxypropanoyl]piperazine-2-carboxylic acid]
< 20	C[C@@H](Oc1ccc2c(-c3ccccc3Cl)cc(=O)oc2c1)C(=O)N1CC[C@H](C(=O)O)C1 [Compound 29, (3S)-1-[2-[4-(2-chlorophenyl)-2-oxo-chromen-7-yl]oxypropanoyl]pyrrolidine-3-carboxylic acid]
100 to 1000	COC(=O)c1cncc(NC(=O)[C@@H](C)Oc2ccc3c(-c4ccc(F)cc4Cl)cc(=O)oc3c2)c1 [Compound 143, methyl 5-[[(2R)-2-[4-(2-chloro-4-fluoro-phenyl)-2-oxo-chromen-7-yl]oxypropanoyl]amino]pyridine-3-carboxylate]
20 to 100	COC(=O)[C@H]1CCN(C(=O)[C@@H](C)Oc2ccc3c(-c4ccc(F)cc4Cl)cc(=O)oc3c2)C1 [Compound 157, methyl (3S)-1-[(2R)-2-[4-(2-chloro-4-fluoro-phenyl)-2-oxo-chromen-7-yl]oxypropanoyl]pyrrolidine-3-carboxylate]
20 to 100	CC(C)OC(=O)[C@@H](C)Oc1ccc2c(-c3ccccc3Cl)cc(=O)oc2c1 [Compound 64, isopropyl (2R)-2-[4-(2-chlorophenyl)-2-oxo-chromen-7-yl]oxypropanoate]
< 20	Cc1ccccc1-c1cc(=O)oc2cc(OC(C)C(=O)Nc3ccc(CCO)cc3)ccc12 (stereo not drawn) [Compound 19, N-[4-(2-hydroxyethyl)phenyl]-2-[4-(o-tolyl)-2-oxo-chromen-7-yl]oxy-propanamide]
20 to 100	COC(=O)C[C@@H]1CCN(C(=O)[C@@H](C)Oc2ccc3c(-c4ccc(F)cc4Cl)cc(=O)oc3c2)C1 [Compound 144, methyl 2-[(3S)-1-[(2R)-2-[4-(2-chloro-4-fluoro-phenyl)-2-oxo-chromen-7-yl]oxypropanoyl]pyrrolidin-3-yl]acetate]
< 20	C[C@@H](Oc1ccc2c(-c3ccccc3Cl)cc(=O)oc2c1)C(=O)N1CCCCC1 [Compound 34, 4-(2-chlorophenyl)-7-[(1R)-1-methyl-2-oxo-2-(1-piperidyl)ethoxy]chromen-2-one]
< 20	Cc1ccccc1-c1cc(=O)oc2cc(OC(C)C(=O)N3CCCC(S(=O)(=O)O)C3)ccc12 (stereo not drawn) [Compound 10, 1-[2-[4-(o-tolyl)-2-oxo-chromen-7-yl]oxypropanoyl]piperidine-3-sulfonic acid]
20 to 100	COC(=O)CC1CCN(C(=O)C(C)Oc2ccc3c(-c4ccccc4C)cc(=O)oc3c2)CC1 (stereo not drawn) [Compound 83, methyl 2-[1-[2-[4-(o-tolyl)-2-oxo-chromen-7-yl]oxypropanoyl]-4-piperidyl]acetate]
20 to 100	CC(Oc1ccc2c(-c3cccc(F)c3Cl)cc(=O)oc2c1)C(=O)O (stereo not drawn) [Compound 94, 2-[4-(2-chloro-3-fluoro-phenyl)-2-oxo-chromen-7-yl]oxypropanoic acid]
100 to 1000	COC(=O)[C@@H]1CN(C(=O)[C@@H](C)Oc2ccc3c(-c4ccc(F)cc4Cl)cc(=O)oc3c2)CCN1 [Compound 135, methyl (2S)-4-[(2R)-2-[4-(2-chloro-4-fluoro-phenyl)-2-oxo-chromen-7-yl]oxypropanoyl]piperazine-2-carboxylate]
< 20	C[C@@H](Oc1ccc2c(-c3ccccc3Cl)cc(=O)oc2c1)C(=O)N1CCC[C@H](C#N)C1 [Compound 28, (3S)-1-[(2R)-2-[4-(2-chlorophenyl)-2-oxo-chromen-7-yl]oxypropanoyl]piperidine-3-carbonitrile]
100 to 1000	COC(=O)c1ccnc(NC(=O)[C@@H](C)Oc2ccc3c(-c4ccc(F)cc4Cl)cc(=O)oc3c2)c1 [Compound 146, methyl 2-[[(2R)-2-[4-(2-chloro-4-fluoro-phenyl)-2-oxo-chromen-7-yl]oxypropanoyl]amino]pyridine-4-carboxylate]
20 to 100	CCOC(=O)C(C)Oc1ccc2c(-c3ccccc3C)cc(=O)oc2c1 (stereo not drawn) [Compound 58, ethyl 2-[4-(o-tolyl)-2-oxo-chromen-7-yl]oxypropanoate]
< 20	COC(=O)C[C@H]1CCCN(C(=O)[C@@H](C)Oc2ccc3c(-c4ccccc4Cl)cc(=O)oc3c2)C1 [Compound 101, methyl 2-[(3R)-1-[(2R)-2-[4-(2-chlorophenyl)-2-oxo-chromen-7-yl]oxypropanoyl]-3-piperidyl]acetate]
< 20	CCc1ccccc1-c1cc(=O)oc2cc(O[C@H](C)C(=O)N3CCC[C@H](C(=O)O)C3)ccc12 [Compound 134, (3S)-1-[(2R)-2-[4-(2-ethylphenyl)-2-oxo-chromen-7-yl]oxypropanoyl]piperidine-3-carboxylic acid]
